GI50 and TGI data for 9 molecules are collected here from PubChem BioAssay (NCI).

Test systems include BT-549 breast; HCT-15 colon; HT29 colon; K-562 leukemia; MOLT-4 leukemia; NCI-H23 lung; PC-3 prostate; SK-MEL-5 melanoma; SN12C renal; EKVX NSCLC.
Common to all, as to test: inhibition of tumour cell growth, NCI panel, 48 h

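All cell lines were grown in 96-well plates and treated with compound for 48 hours. Abbreviation: GI50, concentration required for 50% inhibition of growth. The concentration for full growth arrest is given as TGI.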

As to `CCC(CC)n1cnc2c(-c3cnc(N)cn3)nc(N3CC4CCC(C3)O4)nc21`, the GI50 in the assay on BT-549 breast is 0.108 µM; with HCT-15 colon it was 0.432 µM; in the assay with HT29 colon it was 0.742 µM; in the assay with K-562 leukemia, 0.854 µM; in the assay with MOLT-4 leukemia, 0.322 µM; in the assay with NCI-H23 lung, 0.56 µM. Further, the results for the GI50 in the assay on PC-3 prostate, with SK-MEL-5 melanoma and in the assay with SN12C renal were 0.104 µM, 0.138 µM and 0.294 µM, respectively. The TGI was 2.5 µM in the assay on BT-549 breast; over 100 µM in the assay on HCT-15 colon; over 100 µM in the assay on HT29 colon; over 100 µM in the assay on K-562 leukemia; 53.4 µM with MOLT-4 leukemia; over 100 µM in the assay with NCI-H23 lung. For the same molecule, the TGI in the assay with PC-3 prostate was over 100 µM; with SK-MEL-5 melanoma, 1.21 µM; in the assay on SN12C renal, over 100 µM.

On to `O=C(c1c(F)c(F)c(F)c(F)c1F)c1c(F)c(F)c(F)c(F)c1F`, for which the TGI was 6.68 µM in the assay on BT-549 breast; 4.06 µM in the assay with EKVX NSCLC; 3.83 µM in the assay on HCT-15 colon; 3.08 µM in the assay with HT29 colon; over 100 µM in the assay on K-562 leukemia; 0.764 µM with MOLT-4 leukemia. Besides, the TGI in the assay on NCI-H23 lung was determined as 7.87 µM; in the assay on PC-3 prostate, 3.39 µM; in the assay on SK-MEL-5 melanoma, 8.24 µM.

For the molecule `COc1cc(-c2nn(-c3cccc(NC(=O)Nc4ccc(Cl)c(C(F)(F)F)c4)c3)cc2-c2ccncc2)ccc1Cl`, the GI50 with BT-549 breast is 2.36 µM; in the assay on HCT-15 colon it was 1.23 µM; with HT29 colon it was 1.19 µM; in the assay with K-562 leukemia, 1.21 µM; in the assay with MOLT-4 leukemia it was 1.02 µM; with NCI-H23 lung it was 1.13 µM. Further, the GI50 in the assay on PC-3 prostate was 0.69 µM; in the assay on SK-MEL-5 melanoma, 0.818 µM; in the assay with SN12C renal it was 1.14 µM. Moreover, the TGI with BT-549 breast is 10.2 µM; in the assay on HCT-15 colon, 7.05 µM; in the assay with HT29 colon, 4.45 µM; in the assay with K-562 leukemia it was over 32.5 µM; in the assay on MOLT-4 leukemia, 7.96 µM; with NCI-H23 lung, 8.02 µM. The TGI in the assay with PC-3 prostate was 2.45 µM; in the assay on SK-MEL-5 melanoma, 2.89 µM; in the assay with SN12C renal, 9.23 µM.

Take `CSc1cc([C@@H]2C[C@H]2c2ccc(Cl)cc2)on1`: the GI50 in the assay on BT-549 breast is 23.9 µM; with EKVX NSCLC, 29.8 µM; with HCT-15 colon it was 10.8 µM; in the assay on HT29 colon, 18.6 µM; in the assay with K-562 leukemia, 35.1 µM; with MOLT-4 leukemia it was 28.6 µM. The GI50 was 3.98 µM in the assay on NCI-H23 lung, 16 µM in the assay with PC-3 prostate and 5.17 µM with SN12C renal. Further, the TGI in the assay on BT-549 breast is 62 µM; in the assay on EKVX NSCLC, 55.8 µM; in the assay on HCT-15 colon, 36.9 µM; in the assay with HT29 colon it was over 100 µM; with K-562 leukemia it was over 100 µM; in the assay on MOLT-4 leukemia it was over 100 µM. Also, the TGI was 18.1 µM in the assay with NCI-H23 lung, 33.6 µM in the assay with PC-3 prostate and 20.5 µM in the assay on SN12C renal.

Take `CC1SC(c2ccccc2Cl)N(NC(=O)C(O)c2ccccc2)C1=O` (stereo not given): the GI50 in the assay on BT-549 breast is over 100 µM; in the assay with EKVX NSCLC it was over 100 µM; in the assay on HCT-15 colon, 66.9 µM; in the assay on HT29 colon it was over 100 µM; in the assay on K-562 leukemia, 58.5 µM; in the assay on MOLT-4 leukemia it was 50.4 µM. The values for the GI50 in the assay on PC-3 prostate, in the assay on SK-MEL-5 melanoma and with SN12C renal were 45.6 µM, 63.9 µM and over 100 µM, respectively. The TGI with BT-549 breast, in the assay on EKVX NSCLC, in the assay on HCT-15 colon, in the assay with HT29 colon, in the assay on K-562 leukemia and in the assay with MOLT-4 leukemia was over 100 µM in each case. Further, the TGI with PC-3 prostate, in the assay on SK-MEL-5 melanoma and in the assay on SN12C renal was over 100 µM in each case.

`O=C(O)/C=C/c1ccc(Oc2ccccc2C(=O)O)o1`: the TGI in the assay on BT-549 breast, in the assay with HCT-15 colon, with HT29 colon, in the assay on K-562 leukemia, with MOLT-4 leukemia and in the assay on NCI-H23 lung was over 10 µM each time. Moreover, the TGI in the assay on PC-3 prostate, in the assay with SK-MEL-5 melanoma and in the assay with SN12C renal was over 10 µM in each case.

`Cc1ccc(S(=O)(=O)ON2C(=O)c3cccc4cc([N+](=O)[O-])cc(c34)C2=O)cc1`: the TGI in the assay with BT-549 breast is over 100 µM; in the assay with EKVX NSCLC it was over 100 µM; in the assay with HCT-15 colon it was over 100 µM; with HT29 colon, 79.3 µM; in the assay with MOLT-4 leukemia it was over 100 µM; with NCI-H23 lung it was over 100 µM. The TGI with PC-3 prostate, in the assay with SK-MEL-5 melanoma and in the assay on SN12C renal was over 100 µM in each case.

Consider `CC1(C)N=C(N)N=C(N)N1c1ccc(CNC(=O)Nc2ccc(S(=O)(=O)F)c(Cl)c2)c(Cl)c1`, for which the GI50 is 8.51 µM in the assay with BT-549 breast; 4.87 µM in the assay with HCT-15 colon; 0.195 µM with HT29 colon; 0.257 µM with K-562 leukemia; 0.954 µM in the assay on MOLT-4 leukemia; 0.585 µM in the assay on NCI-H23 lung. Also, the GI50 with PC-3 prostate was 0.0677 µM; in the assay on SK-MEL-5 melanoma, 0.88 µM; with SN12C renal, 0.867 µM. For the same molecule, the TGI with BT-549 breast was over 100 µM; in the assay with HCT-15 colon, over 100 µM; in the assay on HT29 colon, over 67.3 µM; in the assay on K-562 leukemia, over 100 µM; with MOLT-4 leukemia it was over 100 µM; in the assay with NCI-H23 lung it was over 100 µM. Moreover, the figures for the TGI with PC-3 prostate, in the assay with SK-MEL-5 melanoma and in the assay on SN12C renal were over 100 µM, over 74.7 µM and over 100 µM, respectively.

Take `NC(=S)N/N=C/c1ccc(OC(=O)COc2cc(Cl)c(Cl)cc2Cl)cn1`: the GI50 with BT-549 breast was 3.92 µM; in the assay with HCT-15 colon, 6.84 µM; in the assay on HT29 colon it was 17.7 µM; in the assay with K-562 leukemia, 5.56 µM; in the assay with MOLT-4 leukemia, 4.53 µM; in the assay on NCI-H23 lung, 3.26 µM. Also, the GI50 in the assay with PC-3 prostate is 4.59 µM; with SK-MEL-5 melanoma, 3.42 µM; with SN12C renal, 3.58 µM. Besides, the TGI in the assay with BT-549 breast, in the assay with HCT-15 colon, in the assay on HT29 colon, with K-562 leukemia, in the assay on MOLT-4 leukemia and in the assay with NCI-H23 lung was over 100 µM in each case. Moreover, the TGI in the assay with PC-3 prostate was over 100 µM; in the assay with SK-MEL-5 melanoma it was 59.6 µM; in the assay on SN12C renal it was over 100 µM.
